Patent publication US20180000085A1, “USE OF PICOLINAMIDE COMPOUNDS WITH FUNGICIDAL ACTIVITY” (DOW AGROSCIENCES LLC, priority 2014, published 2018)

Experiments:
[1] = test system: Zymoseptoria tritici; test: Leaf blotch of wheat (SEPTTR) disease control on wheat seedlings; format: in vivo; parameters: key to SEPTTR 1DP, HV activity at 100 ppm (% control rating) / SEPTTR 3DC, HV activity at 100 ppm (% control rating) / SEPTTR disease control, 1DP / SEPTTR disease control, 3DC / SEPTTR 1DP disease control rating, HV activity / SEPTTR 3DC disease control rating, HV activity / SEPTTR 3DC, LV activity at 125.1 g/H (% Control rating) / SEPTTR 1DP, LV activity at 125.1 g/H (% Control rating) / SEPTTR 1DP disease control rating, LV activity at 125.1 g/H / SEPTTR 3DC disease control rating, LV activity at 125.1 g/H / SEPTTR 3DC disease control rating, HV activity at 100 ppm / SEPTTR 1DP disease control rating, HV activity at 100 ppm / HV activity at 100 ppm SEPTTR 3DC (disease control rating) / HV activity at 100 ppm SEPTTR 1DP (disease control rating) / LV activity at 125.1 g/H SEPTTR 1DP (disease control rating) / LV activity at 125.1 g/H SEPTTR 3DC (disease control rating): A: > 80; B: ≤ 80; C: Not Tested; D: No Activity Observed in the Reported Assay; conditions: for SEPTTR 1DP, LV activity at 125.1 g/H (% Control rating) / SEPTTR 3DC, LV activity at 125.1 g/H (% Control rating) / SEPTTR 1DP disease control rating, LV activity at 125.1 g/H / SEPTTR 3DC disease control rating, LV activity at 125.1 g/H: low volume application; for SEPTTR 1DP disease control rating, LV activity at 125.1 g/H / SEPTTR 1DP disease control rating, HV activity at 100 ppm: 1 day protectant; for SEPTTR 3DC disease control rating, LV activity at 125.1 g/H / SEPTTR 3DC disease control rating, HV activity at 100 ppm: 3 day curative; for SEPTTR 1DP disease control rating, HV activity / SEPTTR 3DC disease control rating, HV activity: HV application at 100 ppm
[2] = test system: Puccinia triticina; test: Wheat brown rust (PUCCRT) disease control on wheat seedlings; format: in vivo; parameters: key to PUCCRT 3DC, HV activity at 100 ppm (% control rating) / PUCCRT disease control, 3DC / PUCCRT 1DP disease control rating, HV activity / PUCCRT 3DC disease control rating, HV activity / PUCCRT 3DC, LV activity at 125.1 g/H (% Control rating) / PUCCRT 1DP, LV activity at 125.1 g/H (% Control rating) / PUCCRT 3DC disease control rating, LV activity at 125.1 g/H / PUCCRT 1DP disease control rating, LV activity at 125.1 g/H / PUCCRT 3DC disease control rating, HV activity at 100 ppm / PUCCRT 1DP disease control rating, HV activity at 100 ppm / HV activity at 100 ppm PUCCRT 3DC (disease control rating) / LV activity at 125.1 g/H PUCCRT 1DP (disease control rating) / LV activity at 125.1 g/H PUCCRT 3DC (disease control rating): A: > 80; B: ≤ 80; C: Not Tested; D: No Activity Observed in the Reported Assay; conditions: for PUCCRT 1DP, LV activity at 125.1 g/H (% Control rating) / PUCCRT 3DC, LV activity at 125.1 g/H (% Control rating) / PUCCRT 1DP disease control rating, LV activity at 125.1 g/H / PUCCRT 3DC disease control rating, LV activity at 125.1 g/H: low volume application; for PUCCRT 1DP disease control rating, LV activity at 125.1 g/H / PUCCRT 1DP disease control rating, HV activity at 100 ppm: 1 day protectant; for PUCCRT 3DC disease control rating, LV activity at 125.1 g/H / PUCCRT 3DC disease control rating, HV activity at 100 ppm: 3 day curative; for PUCCRT 1DP disease control rating, HV activity / PUCCRT 3DC disease control rating, HV activity: HV application at 100 ppm
[3] = 1 Day Protectant, wheat leaf blotch
[4] = 3 Day Curative, wheat leaf blotch
[5] = 1 Day Protectant, wheat brown rust
[6] = 3 Day Curative, wheat brown rust
[7] = high volume application, 100 ppm
[8] = HV activity at 100 ppm, 1 Day Protectant, wheat
[9] = HV activity at 100 ppm, 3 Day Curative, wheat
[10] = high volume application, 100 ppm, 1DP
[11] = high volume application, 100 ppm, 3DC

Compound	SEPTTR 1DP, LV activity at 125.1 g/H (% Control rating) ([1]; 1 Day Protectant)	SEPTTR 3DC, LV activity at 125.1 g/H (% Control rating) ([1]; 3 Day Curative)	PUCCRT 1DP, LV activity at 125.1 g/H (% Control rating) ([2]; 1 Day Protectant)	PUCCRT 3DC, LV activity at 125.1 g/H (% Control rating) ([2]; 3 Day Curative)	SEPTTR 1DP disease control rating, HV activity [1, 3]	SEPTTR 3DC disease control rating, HV activity [1, 4]	PUCCRT 1DP disease control rating, HV activity [2, 5]	PUCCRT 3DC disease control rating, HV activity [2, 6]	further results
CCCOC[C@@H](Oc1ccccc1)[C@H](C)OC(=O)[C@H](CC)NC(=O)c1nccc(OC)c1OC(C)=O [Cmpd 484]	B (≤ 80)	D	B (≤ 80)	A (> 80)	–	–	–	–	–
CC[C@H](OC)[C@@H](Oc1ccccc1)[C@H](C)OC(=O)[C@H](C)NC(=O)c1nccc(OC)c1O [Cmpd 403]	–	–	–	–	–	–	–	–	SEPTTR 1DP disease control rating, LV activity ([1]; Low volume application at 125.1 g/H, 1 Day Protectant, wheat leaf blotch): B (≤ 80); SEPTTR 3DC disease control rating, LV activity ([1]; Low volume application at 125.1 g/H, 3 Day Curative, wheat leaf blotch): A (> 80); PUCCRT 1DP disease control rating, LV activity ([2]; Low volume application at 125.1 g/H, 1 Day Protectant, wheat brown rust): A (> 80); PUCCRT 3DC disease control rating, LV activity ([2]; Low volume application at 125.1 g/H, 3 Day Curative, wheat brown rust): A (> 80)
COc1ccnc(C(=O)NC(Cc2ccccc2)C(=O)OC(C)C(Oc2ccccc2)C(C)C)c1OCOC(C)=O (stereo not shown) [Cmpd 865]	–	–	–	–	–	–	–	–	SEPTTR 1DP disease control rating, LV activity at 125.1 g/H [1]: B (≤ 80); SEPTTR 3DC disease control rating, LV activity at 125.1 g/H [1]: B (≤ 80); PUCCRT 1DP disease control rating, LV activity at 125.1 g/H [2]: A (> 80); PUCCRT 3DC disease control rating, LV activity at 125.1 g/H [2]: A (> 80)
CCC(CC)[C@@H](OCC1CC1)[C@H](C)OC(=O)[C@H](C)NC(=O)c1nccc(OC)c1OC(C)=O [Cmpd 555]	B (≤ 80)	A (> 80)	A (> 80)	A (> 80)	–	–	–	–	–
CCC(CC)[C@@H](Oc1cc(F)ccc1F)[C@H](C)OC(=O)[C@@H](NC(=O)c1nccc(OC)c1OCOC(C)=O)C(C)C [Cmpd 650]	D	B (≤ 80)	A (> 80)	B (≤ 80)	–	–	–	–	–
CCC(CC)[C@@H](Oc1cc(F)cc(Cl)c1)[C@H](C)OC(=O)[C@H](C)NC(=O)c1nccc(OC)c1OC(C)=O [Cmpd 603]	A (> 80)	A (> 80)	A (> 80)	A (> 80)	–	–	–	–	–
CCCOC(C(C)C)C(C)OC(=O)C(C)NC(=O)c1nccc(OC)c1O (stereo not shown) [Cmpd 435]	–	–	–	–	D	D	B (≤ 80)	B (≤ 80)	–
COc1ccnc(C(=O)NC(C)C(=O)OC(C)C(OCC2CC2)C23CC4CC(CC(C4)C2)C3)c1O (stereo not shown) [Cmpd 827]	–	–	–	–	–	–	–	–	SEPTTR 1DP disease control rating, HV activity at 100 ppm [1, 7]: B (≤ 80); SEPTTR 3DC disease control rating, HV activity at 100 ppm [1, 7]: D; PUCCRT 1DP disease control rating, HV activity at 100 ppm [2, 7]: A (> 80); PUCCRT 3DC disease control rating, HV activity at 100 ppm [2, 7]: D
COc1ccnc(C(=O)NC(C)C(=O)OC(C)C(Oc2cccc(C(F)(F)F)c2)C(C)C)c1O (stereo not shown) [Cmpd 433]	–	–	–	–	D	D	A (> 80)	A (> 80)	–
COc1ccnc(C(=O)NC(C)C(=O)OC(C)C(Oc2cccc(F)c2)C(C)C)c1O (stereo not shown) [Cmpd 390]	–	–	–	–	B (≤ 80)	A (> 80)	A (> 80)	A (> 80)	–
CC[C@H](Cc1ccccc1)[C@@H](OCC(C)C)[C@H](C)OC(=O)[C@H](C)NC(=O)c1nccc(OC)c1O [Cmpd 293, (S)-(2S,3R,4R)-4-benzyl-3-isobutoxyhexan-2-yl-2-(3-hydroxy-4-methoxypicolinamido)propanoate]	–	–	–	–	A (> 80)	B (≤ 80)	A (> 80)	B (≤ 80)	SEPTTR disease control, 1DP [1, 8]: A (> 80); SEPTTR disease control, 3DC [1, 9]: B (≤ 80); SEPTTR 1DP, HV activity at 100 ppm (% control rating) [1, 10]: A (> 80); SEPTTR 3DC, HV activity at 100 ppm (% control rating) [1, 11]: B (≤ 80); PUCCRT disease control, 1DP [2, 8]: A (> 80); PUCCRT disease control, 3DC [2, 9]: B (≤ 80); PUCCRT 1DP, HV activity at 100 ppm (% control rating) [2, 10]: A (> 80); PUCCRT 3DC, HV activity at 100 ppm (% control rating) [2, 11]: B (≤ 80)
COc1ccnc(C(=O)NC(C)C(=O)OC(C)(C)C(Oc2ccccc2)C(C)C)c1OCOC(C)=O (mixture of isomers) [Cmpd 903]	–	–	–	–	–	–	–	–	SEPTTR 1DP disease control rating, LV activity at 125.1 g/H [1]: B (≤ 80); SEPTTR 3DC disease control rating, LV activity at 125.1 g/H [1]: A (> 80); PUCCRT 1DP disease control rating, LV activity at 125.1 g/H [2]: B (≤ 80); PUCCRT 3DC disease control rating, LV activity at 125.1 g/H [2]: D
COc1ccnc(C(=O)NC(C(=O)OC(C)C(Oc2cccc3ccccc23)C(C)C)C(C)C)c1O (stereo not shown) [Cmpd 400]	–	–	–	–	B (≤ 80)	B (≤ 80)	A (> 80)	B (≤ 80)	–
CCC(CC)[C@@H](Oc1cccc(F)c1)[C@H](C)OC(=O)[C@@H](NC(=O)c1nccc(OC)c1O)C(C)C [Cmpd 404]	–	–	–	–	A (> 80)	D	B (≤ 80)	D	–
C=CC[C@@H](Oc1ccc(Cl)cc1Cl)[C@H](C)OC(=O)[C@H](C)NC(=O)c1nccc(OC)c1OC(C)=O [Cmpd 697]	–	–	–	–	–	–	–	–	SEPTTR 1DP disease control rating, LV activity at 125.1 g/H [1]: D; SEPTTR 3DC disease control rating, LV activity at 125.1 g/H [1]: B (≤ 80); PUCCRT 1DP disease control rating, LV activity at 125.1 g/H [2]: A (> 80); PUCCRT 3DC disease control rating, LV activity at 125.1 g/H [2]: A (> 80)
CCC(CC)[C@@H](Oc1ccc(Cl)cc1Cl)[C@H](C)OC(=O)[C@@H](NC(=O)c1nccc(OC)c1OCOC(C)=O)C(C)C [Cmpd 649]	D	D	A (> 80)	B (≤ 80)	–	–	–	–	–
COc1ccnc(C(=O)N[C@@H](C)C(=O)O[C@@H](C)[C@H](Oc2ccc(Cl)cc2)c2ccccc2)c1OCOC(C)=O [Cmpd 636]	A (> 80)	A (> 80)	A (> 80)	A (> 80)	–	–	–	–	–
CCC(CC)C(Oc1cccc(-c2ccccc2)c1)C(C)OC(=O)C(C)NC(=O)c1nccc(OC)c1O (stereo not shown) [Cmpd 386]	–	–	–	–	D	D	B (≤ 80)	B (≤ 80)	–
CC[C@H](Cc1ccccc1)[C@@H](Oc1ccccc1)[C@H](C)OC(=O)CNC(=O)c1nccc(OC)c1O [Cmpd 312]	–	–	–	–	D	D	A (> 80)	A (> 80)	–
COc1ccnc(C(=O)N[C@@H](CC(C)C)C(=O)O[C@@H](C)[C@H](Oc2ccccc2)C(C)C)c1O [Cmpd 813]	–	–	–	–	–	–	–	–	SEPTTR 1DP disease control rating, HV activity at 100 ppm [1, 7]: D; SEPTTR 3DC disease control rating, HV activity at 100 ppm [1, 7]: B (≤ 80); PUCCRT 1DP disease control rating, HV activity at 100 ppm [2, 7]: B (≤ 80); PUCCRT 3DC disease control rating, HV activity at 100 ppm [2, 7]: D
CCC(CCOC)C(Oc1ccccc1)C(C)OC(=O)C(C)NC(=O)c1nccc(OC)c1OC(C)=O (stereo not shown) [Cmpd 481]	B (≤ 80)	A (> 80)	A (> 80)	A (> 80)	–	–	–	–	–
COc1ccnc(C(=O)NC(C)C(=O)OC(C)C(Oc2ccccc2)c2ccc(-c3ccccc3)cc2)c1OCOC(C)=O (stereo not shown) [Cmpd 905]	–	–	–	–	–	–	–	–	SEPTTR 1DP disease control rating, LV activity at 125.1 g/H [1]: A (> 80); SEPTTR 3DC disease control rating, LV activity at 125.1 g/H [1]: A (> 80); PUCCRT 1DP disease control rating, LV activity at 125.1 g/H [2]: A (> 80); PUCCRT 3DC disease control rating, LV activity at 125.1 g/H [2]: B (≤ 80)
CCC(CC)[C@@H](Oc1cccc(-c2ccccc2)c1)[C@H](C)OC(=O)[C@H](C)NC(=O)c1nccc(OC)c1OCOC(C)=O [Cmpd 595]	A (> 80)	A (> 80)	A (> 80)	B (≤ 80)	–	–	–	–	–
